In paper PMC10477861, “Efficient Mining of Anticancer Peptides from Gut Metagenome” (Advanced Science, 2023):

How the values were obtained:
Details in all cases: 25 µM pACP, 24 h, maintenance medium 1% FBS, ratio of viability to vehicle (PBS), at least three technical repetitions
MDA-MB-231 = assay: MTT primary screening of anticancer activity, MDA-MB-231; assay type: cell-based
Source text: (§1) We successfully chemically synthesized 40 pACPs for the purpose of in vitro or in vivo characterization of their potential anticancer efficacy. In the initial step, we conducted an in vitro primary screen of these 40 pACPs using a panel of 16 different cancer cell lines, including four human CRC lines (HT29, Caco2, HCT116, and […]), as well as 12 other cancer models (Table S4, Supporting Information). We deliberately selected a diverse panel of cell lines to assess the effect of pACPs across various genetic backgrounds. Briefly, the cancer cells were cultured in specific media (details provided in the Experimental Section) and then treated with pACPs at a final concentration of 25 µM. Peptides with minimum effective inhibition concentrations >25 µM were considered non‐ACPs. After exposure to pACPs, the survival rate of the cancer cells was measured using the MTT assay. Remarkably, 39 out of the 40 pACPs (97.5%) induced at least 20% inhibition in at least one cell line (Figure 3a and Table S5, Supporting Information). […] Thus, our method successfully identified pACPs with a very high rate of anticancer effects across various cancer cell lines.
(§2) To evaluate the activity of the 40 potentially effective pACPs, a panel of 16 cancer cell lines was treated, including human CRC cell lines (HT29, Caco‐2, HCT116). Details of the cell lines used, respective media, and culture conditions were presented in Table S1 (Supporting Information). Once the cells reached 60% confluence, it was incubated with each candidate peptide at a concentration of 25 µM pACPs for 24 h. Concurrently, the complete medium was replaced with a maintenance medium containing only 1% FBS. Subsequently, the viability of each cell line using the MTT Cell Proliferation and Cytotoxicity Assay Kit according to the manufacturer's instructions was assessed. […] For the CRC cell line CT26, it was calculated the CC50 value using two peptides (pACP1780 and pACP2283) with relevant data presented in Table S6 (Supporting Information). The calculation was performed using an online tool: https://www.aatbio.com/tools/ic50‐calculator.

MDA-MB-436 = assay: MTT primary screening of anticancer activity, MDA-MB-436; assay type: cell-based
Source text: as §1, §2

BT474 = assay: MTT primary screening of anticancer activity, BT474; assay type: cell-based
Source text: as §1, §2

HT29 = assay: MTT primary screening of anticancer activity, HT29; assay type: cell-based, Human
Source text: as §1, §2

MCF7 = assay: MTT primary screening of anticancer activity, MCF7; assay type: cell-based
Source text: as §1, §2

HCT116 = assay: MTT primary screening of anticancer activity, HCT116; assay type: cell-based, Human
Source text: as §1, §2

Hela = assay: MTT primary screening of anticancer activity, Hela; assay type: cell-based, Human
Source text: as §1, §2

MDA-MB-468 = assay: MTT primary screening of anticancer activity, MDA-MB-468; assay type: cell-based
Source text: as §1, §2

LCC = assay: MTT primary screening of anticancer activity, LCC; assay type: cell-based
Source text: as §1, §2

MDA-MB-453 = assay: MTT primary screening of anticancer activity, MDA-MB-453; assay type: cell-based
Source text: as §1, §2

SK-BR-3 = assay: MTT primary screening of anticancer activity, SK-BR-3; assay type: cell-based
Source text: as §1, §2

CT26 = assay: MTT primary screening of anticancer activity, CT26; assay type: cell-based, Murine
Source text: as §1, §2

Caco2 = assay: MTT primary screening of anticancer activity, Caco2; assay type: cell-based, Human
Source text: as §1, §2

T47D = assay: MTT primary screening of anticancer activity, T47D; assay type: cell-based
Source text: as §1, §2

B16 = assay: MTT primary screening of anticancer activity, B16; assay type: cell-based, Mouse
Source text: as §1, §2

EFM192A = assay: MTT primary screening of anticancer activity, EFM192A; assay type: cell-based
Source text: as §1, §2

Sequence | Survival rate of cancer cells in primary screening (MDA-MB-231) | Survival rate of cancer cells in primary screening (MDA-MB-436) | Survival rate of cancer cells in primary screening (BT474) | Survival rate of cancer cells in primary screening (HT29) | Survival rate of cancer cells in primary screening (MCF7) | Survival rate of cancer cells in primary screening (HCT116) | Survival rate of cancer cells in primary screening (Hela) | Survival rate of cancer cells in primary screening (MDA-MB-468) | Survival rate of cancer cells in primary screening (LCC) | Survival rate of cancer cells in primary screening (MDA-MB-453) | Survival rate of cancer cells in primary screening (SK-BR-3) | Survival rate of cancer cells in primary screening (CT26) | Survival rate of cancer cells in primary screening (Caco2) | Survival rate of cancer cells in primary screening (T47D) | Survival rate of cancer cells in primary screening (B16) | Survival rate of cancer cells in primary screening (EFM192A)
PVCRKEKKDGKRCVARYVEHFAGKDRRMQA [pACP1505] | 1.00 | 1.00 | 1.00 | 1.00 | 1.00 | 1.00 | 1.00 | 1.00 | 1.00 | 1.00 | 1.00 | 1.00 | 1.00 | 0.76 | 0.78 | 1.00
GWKKSQCCRNGFYRERGQQQAKNFMSQESFPVRENGE [pACP602] | 1.00 | 1.00 | 1.00 | 1.00 | 0.77 | 1.00 | 1.00 | 1.00 | 1.00 | 1.00 | 1.00 | 1.00 | 1.00 | 0.70 | 0.80 | 1.00
RVYKFVDMIGEIGHGRENHIGSGFDERLCRNGACVDCYGKYLCCRTGDYP [pACP1836] | 1.00 | 1.00 | 1.00 | 0.77 | 1.00 | 0.79 | 1.00 | 0.70 | 1.00 | 1.00 | 1.00 | 1.00 | 1.00 | 1.00 | 1.00 | 1.00
NFWLSTLTGHGFCAVVSAARAGS [pACP1292] | 1.00 | 0.74 | 1.00 | 1.00 | 0.79 | 1.00 | 1.00 | 1.00 | 1.00 | 1.00 | 1.00 | 1.00 | 1.00 | 0.76 | 1.00 | 0.40
NSFCRQTALCSVALGQYRTKIVRQMRRQIFRQMKQKAE [pACP1403] | 1.00 | 1.00 | 1.00 | 1.00 | 1.00 | 1.00 | 1.00 | 0.73 | 1.00 | 1.00 | 1.00 | 1.00 | 1.00 | 0.71 | 1.00 | 1.00
NTGGIQKIQPLRKTDPLLAPCVSGRIGCPGRRCS [pACP1412] | 1.00 | 1.00 | 1.00 | 1.00 | 1.00 | 1.00 | 1.00 | 1.00 | 1.00 | 1.00 | 1.00 | 1.00 | 1.00 | 0.74 | 0.80 | 1.00
RLRPVILCKKRRLAAGRKKVGRQKKRKASAEGKEGRSPKKKKDGCW [pACP1739] | 1.00 | 0.51 | 0.21 | 1.00 | 0.28 | 1.00 | 0.16 | 0.39 | 1.00 | 0.18 | 0.53 | 1.00 | 1.00 | 0.40 | 1.00 | 1.00
IPNKKAGSRCLSKKCLLPAKRAFEIHFLTQLTGDIKGI [pACP766] | 1.00 | 0.52 | 0.71 | 0.47 | 0.59 | 1.00 | 0.68 | 1.00 | 1.00 | 1.00 | 1.00 | 1.00 | 0.68 | 0.61 | 1.00 | 1.00
ERRVGYSWYGTWGNKVLKKYPEWLRRLTEKK [pACP341] | 1.00 | 1.00 | 0.62 | 1.00 | 0.66 | 1.00 | 1.00 | 0.74 | 1.00 | 1.00 | 1.00 | 0.60 | 1.00 | 1.00 | 0.74 | 1.00
